Data as given in US20050153361A1, “Therapeutic and diagnostic applications of protein disulphide isomerases” (priority 2003, published 2005).
“Also recorded” adds a separate entry of the source.

How the values were obtained:
[1] = tested on: CD105 cell surface expression on HDMEC; assay: CD105 cell surface expression on HDMEC by FACS after siRNA treatment; assay type: cell-based, human; conditions: under hypoxia
Experimental: (§1) Transfection of microvascular endothelial cells with siRNA: EndoPDI specific (5′-[…]-3′) and PDI specific (5′-[…]-3′) siRNA oligos were synthesized using the SilencerTM siRNA Construction kit (Ambion, Huntingdon, UK) following manufacturer's instructions. HDMEC (5×10^5 cells) were plated onto 0.2% gelatin coated 10 cm petri dishes and incubated for 24 h. Cells were then transfected with 10 nM EndoPDI and/or PDI siRNA using oligofectamine reagent (Invitrogen) according to the manufacturer's instructions. The cells were then incubated for 24 h prior to hypoxia for 16 h (0.1% O2, 5% CO2 and 94.9% N2) or continuation of normoxic exposure for 16 h before performing FACS analysis as described.
The cell surface expression of CD105 was quantified by incubating 10^5 cells per tube with 50 μl (10 μl/ml in PBS) of monoclonal antibody to CD105 on ice for 1 h and washed twice with cold PBS. After incubation with FITC-labelled rabbit anti-mouse F(ab)2 (1/40 DAKO) for 30 min on ice, the cells were washed and resuspended in 0.3 ml of 2% buffered formalin and analyzed on a FACScan.

[2] = tested on: human dermal microvascular endothelial cells (HDMEC); assay: FACS analysis of apoptosis (Annexin V-FITC / propidium iodide) after siRNA transfection; assay type: cell-based; conditions: for cell population being apoptotic: 10 nM siRNA
Experimental: as §1
FACS Analysis: To distinguish apoptotic from necrotic cells, double staining for exposed phosphatidylserine and propidium iodide (PI) exclusion was performed as follows: Cells were harvested, washed twice with PBS and resuspended in binding buffer (10 mM HEPES/NaOH, pH 7.4, 140 mM NaCl, 2.5 mM CaC12). Five μl Annexin V-FITC antibody (Pharmingen, San Diego, USA) and 10 μl PI (50 μg/ml) were added to the cells. After incubation for 15 min in the dark at room temperature, the cells were analysed by a FACScan. Controls of unstained cells, cells stained with Annexin V-FITC only and cells stained with PI only were used to set up compensation and quadrants.

[3] = tested on: endothelin-1 secretion by HDMEC; assay: Endothelin-1 secretion by HDMEC measured by ELISA after siRNA treatment; assay type: cell-based, human; conditions: under hypoxia
Experimental: as §1
Measurement of endothelin-1 secretion by ELISA: The secretion of endothelin-1 by endothelial cells was measured using a human endothelin-1 ELISA (R&D Systems, Abindgdon, UK) following manufacturer's instructions. Briefly, 50,000 cells were treated with RNAi oligos as before, the medium collected and diluted 1/25 for use in the ELISA.

[4] = tested on: adrenomedullin secretion by HDMEC; assay: Adrenomedullin secretion by HDMEC measured by radioimmunoassay after siRNA treatment; assay type: cell-based, human; conditions: under hypoxia
Experimental: as §1
Measurement of adrenomedullin by Radioimmunoassay: The secretion of adrenomedullin by endothelial cells was measured using an adrenomedullin radioimmunoassay (Peninsula Laboratories Europe, Ltd, Merseyside, England) following manufacturer's instructions. Briefly, 50,000 cells were treated with RNAi oligos as before, the medium collected and used in the radioimmunoassay.

EndoPDI protein = assay: Western blotting of EndoPDI protein after siRNA transfection; assay type: cell-based, human; conditions: HDMEC, 10 nM siRNA
Source text: Production of polyclonal antibodies to EndoPDI and Western blotting; The peptide of sequence ADGEDGQDPHSKC was synthesized by the Protein and Peptide Chemistry Department of Cancer Research UK, using standard techniques. This sequence corresponds to amino acids 52 to 63 of the human EndoPDI protein sequence with an additional cysteine residue added to the C-terminus to enable coupling to a carrier protein. The peptide was coupled to Imject® Maleimide Activated mcKLH (Pierce, Rockford, USA) following the manufacturer's instructions and diluted with Freunds adjuvant before injection into rabbits. A standard immunisation protocol was followed with 200 μg immunogen used for the first injection and 100 μg immunogen for subsequent boosts. The test bleeds were screened against pre-bleeds by ELISA to identify the presence of antibodies to EndoPDI in the rabbit serum.
as §1

EndoPDI mRNA = assay: RNase protection analysis of EndoPDI mRNA after siRNA transfection; assay type: cell-based, human; conditions: HDMEC, 10 nM siRNA
Experimental: RNase Protection Assay. Total RNA was extracted from cells in culture using TRI reagent (Sigma, Poole, Dorset, UK). RNase protection assays were performed in duplicate on 10-30 μg of total RNA as described (16). […] The protected fragment size for EndoPDI was 300 nucleotides. In each assay, a positive and negative (tRNA only) control and undigested riboprobes were analysed. Intensity of signal, quantified on a PhosphorImager (Molecular Dynamics, Chesham, Buckinghamshire, United Kingdom) was calculated as the ratio of the signal of interest to U6 mRNA to correct for variations in loading.
as §1

[5] = hypoxia 16 h (0.1% O2), listed as siRNA specific to EndoPDI
[6] = normoxia, listed as siRNA specific to EndoPDI

Row | Substance | CD105 cell surface expression [1] | apoptotic population compared with controls ([2]; HDMEC, hypoxia (0.1% O2, 16 h)) | cell population being apoptotic ([2]; HDMEC, hypoxia (0.1% O2, 16 h)) [%] | apoptotic population compared with controls ([2]; HDMEC, normoxia) | cell population being apoptotic ([2]; HDMEC, normoxia) [%] | endothelin-1 secretion [3] | adrenomedullin secretion [4] | share of the cell population with marked reduction in CD105 expression ([1]; two peaks apparent) [%] | necrotic cell population ([2]; HDMEC, hypoxia) | HDMEC survival ([2]; normoxia) | EndoPDI protein expression (EndoPDI protein; [5]) | EndoPDI protein expression (EndoPDI protein; normoxia) | EndoPDI protein expression (EndoPDI protein; [6]) | EndoPDI mRNA expression (EndoPDI mRNA; [5]) | EndoPDI mRNA expression (EndoPDI mRNA; normoxia) | EndoPDI mRNA expression (EndoPDI mRNA; [6])
1 | PDI specific siRNA: PDI specific siRNA oligo, 5′-GACCTCCCCTTCAAAGTTGTT-3′ (listed as DNA, chemistry not given here) [reference compound] | little effect | significant increase | 48 | significant increase | 55 | significant decrease | little effect |  |  |  |  |  |  |  |  | 
2 | EndoPDI specific siRNA: EndoPDI specific siRNA oligo, 5′-GAAGCTGTGAAGTACCAGGTT-3′, synthesized with the Silencer siRNA Construction kit (listed as DNA, chemistry not given here) | marked reduction | significant increase | 12 |  | 4.5 | even greater reduction | significantly reduced | 50 | significant increase | no effect | loss of EndoPDI expression; also recorded: complete loss | completely blocked | complete loss | loss of EndoPDI expression; also recorded: complete loss | completely blocked | complete loss
